pKi: −log10 of the molar value.

AICARFT, sequence (P31939 whole entry): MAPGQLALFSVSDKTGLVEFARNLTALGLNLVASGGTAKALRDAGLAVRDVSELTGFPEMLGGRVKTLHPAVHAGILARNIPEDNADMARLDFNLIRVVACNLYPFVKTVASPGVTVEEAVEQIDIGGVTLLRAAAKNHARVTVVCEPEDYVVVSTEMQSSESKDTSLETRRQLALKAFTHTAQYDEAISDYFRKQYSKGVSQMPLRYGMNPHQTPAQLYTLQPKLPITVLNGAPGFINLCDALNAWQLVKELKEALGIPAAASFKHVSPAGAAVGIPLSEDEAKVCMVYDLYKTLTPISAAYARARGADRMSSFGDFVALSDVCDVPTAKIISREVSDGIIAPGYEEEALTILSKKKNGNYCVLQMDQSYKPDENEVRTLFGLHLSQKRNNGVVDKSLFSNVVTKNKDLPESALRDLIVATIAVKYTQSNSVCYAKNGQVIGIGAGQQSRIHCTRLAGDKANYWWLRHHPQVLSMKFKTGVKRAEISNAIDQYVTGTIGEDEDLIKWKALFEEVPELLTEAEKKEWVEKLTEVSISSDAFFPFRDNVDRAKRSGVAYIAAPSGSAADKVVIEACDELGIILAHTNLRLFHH

This assay concerns the target AICARFT (Homo sapiens, UniProt P31939). Kind of assay: AICARFT activity, spectrophotometric enzyme assay (modified Black et al.). As to conditions: 50 mM Tris-HCl pH 7.5, 25° C., absorbance at 298 nm, substrates AICAR and FTHF, steady-state rate. It is filed as biochemical. The procedure:
Enzymatic activity was measured spectrophotometrically using a modified assay developed by Black et al. (“A Rapid Assay for 5-Amino-4-imidazolecarboxamide Ribotide Transformylase,” Anal. Biochiem. 90 (1978), 397-401). The reaction volume was 1 mL and contained 50 mM Tris-HCl pH 7.5, 25 mM KCl, 20 mM 2-mercaptoethanol, variable concentrations of test compound in 1% DMSO, […] (5-aminoimidazole-4-carboxamideribonucleotide), […] tetrathydrofolate (FTHF), and 0.015 mM enzyme. The reaction was enzyme-initiated and followed by monitoring the increase in absorbance at 298 nm at 25° C. (ξ298=19.7×10^3 cm^−1M^−1). AICARFT inhibition constants (Ki) were determined from the dependence of the steady-state catalytic rate upon compound and substrate concentration.
The pKi is the Ki on a negative log10 scale, so that one unit is a factor of ten. Turning to `N#Cc1c(-c2ccc(-c3cccs3)s2)nc(SCc2ccc(S(=O)(=O)NCCc3c[nH]c4ccccc34)cc2)[nH]c1=O` [Compound 27, N-(2-[1(H)-indol-3-yl]-ethyl) 4-[([5-cyano-6-(5-[2-thienyl]thien-2-yl)-4(3H)-oxopyrimidin-2-yl]thio)methyl]benzenesulfonamide], the pKi was 7.08.

The molecule `N#Cc1c(-c2ccc(-c3cccs3)s2)nc(SCc2ccc(NS(=O)(=O)c3ccc(F)cc3)cc2Cl)[nH]c1=O` [Compound 21, N-(3-Chloro-4-[([5-cyano-6-(5-[2-thienyl]thien-2-yl)-4(3H)-oxopyrimidin-2-yl]thio)methyl]phenyl) 4-fluorobenzenesulfonamide] gave a pKi of 7.54.

`COc1cc(CSc2nc(-c3ccc(-c4cccs4)s3)c(C#N)c(=O)[nH]2)ccc1NS(=O)(=O)c1ccc(F)cc1` [Compound 24] had a pKi of 5.89.

`O=C(O)CCC(NC(=O)c1ccc(CCSc2nc(-c3ccccc3)cc(=O)[nH]2)s1)C(=O)O` (stereo not drawn) [Compound 12, N-(5-[2-([6-Phenyl-4(3H)-oxopyrimidin-2-yl]thio)ethyl]theno-2-yl)glutamic acid] gave a pKi of 5.05.

`N#Cc1c(-c2ccc(-c3cccs3)s2)nc(SCc2ccc(S(=O)(=O)Nc3ccc(F)cc3)cc2)[nH]c1=O` [Compound 14, N-(4-Fluorophenyl) 4-[([5-cyano-6-(5-[2-thienyl]thien-2-yl)-4(3H)-oxopyrimidin-2-yl]thio)methyl]benzenesulfonamide] showed a pKi of 6.23.

Molecule `Cc1cc(CSc2nc(-c3ccc(-c4cccs4)s3)c(C#N)c(=O)[nH]2)ccc1NS(=O)(=O)c1ccc(F)cc1` [Compound 22, N-(4-[([5-Cyano-6-(5-[2-thienyl]thien-2-yl)4(3H)-oxopyrimidin-2-yl]thio)methyl]-2-methylphenyl) 4-fluorobenzenesulfonamide] showed a pKi of 6.00.

In turn, `N#Cc1c(-c2ccc(-c3cccs3)s2)nc(SCCCCCc2ccc(C(=O)O)s2)[nH]c1=O` [Compound 8, [5-([5-Cyano-6-(5-[2-thienyl]thien-2-yl)-4(3H)-oxopyrimidin-2-yl]thio)pentyl]thiopbene-2-carboxylic acid] had a pKi of 7.40.

`N#Cc1c(-c2ccc(-c3cccs3)s2)nc(SCc2ccc(S(=O)(=O)Nc3ccc(F)cc3)cc2Cl)[nH]c1=O` [Compound 19, N-(4-Fluorophenyl) 4-[([5-cyano-6-(5-[2-thienyl]thien-2-yl)-4(3H)-oxopyrimidin-2-yl]thio)methyl]-3-chlorobenzenesulfonamide] showed a pKi of 6.40.

Molecule `O=C(O)c1ccc(CCCCCSc2nc(-c3ccc(-c4cccs4)s3)cc(=O)[nH]2)s1` [Compound 3, 5-[5-([6-(5-[2-Thienyl]thien-2-yl)-4(3H)-oxopyrimidin-2-yl]thio)pentyl]thiophene-2-carboxylic acid] had a pKi of 6.55.

`O=C(O)c1ccc(CCCCCSc2nc(-c3ccc(-c4ccccc4)cc3)cc(=O)[nH]2)s1` [Compound 5, 5-[5-([6-(4-Biphenylyl)-4(3H)-oxopyrimidin-2-yl]thio)pentyl]thiophene-2-carboxylic acid] showed a pKi of 6.57.

As for `O=C(O)c1ccc(CCCCCSc2nc(-c3cccc(-c4nn[nH]n4)c3)cc(=O)[nH]2)s1` [Compound 26, 5-[5-([6-(3-[1(H)-Tetrazol-5-yl]phenyl)-4(3H)-oxopyrimidin-2-yl]thio)pentyl]thiophene-2-carboxylic acid], the pKi was 6.43.

Consider `O=C(O)CCC(NC(=O)c1ccc(CCCCSc2nc(-c3ccccc3)cc(=O)[nH]2)s1)C(=O)O` (stereo not drawn) [Compound 11, N-(5-[5-([6-Phenyl-4(3H)-oxopyrimidin-2-yl]thio)butyl]thio2-yl)glutamic acid], for which the pKi is 5.17.

`O=C(O)CCC(NC(=O)c1ccc(CCCCCSc2nc(-c3ccccc3)cc(=O)[nH]2)s1)C(=O)O` (stereo not drawn) [Compound 9, N-(5-[5-([6-Phenyl-4(3H)-oxopyrimidin-2-yl]thio)pentyl]theno-2-yl)glutamic acid] showed a pKi of 6.34.

`O=C(O)c1ccc(CCCCCSc2nc(-c3ccc(Oc4ccccc4)cc3)cc(=O)[nH]2)s1` [Compound 6, 5-[5-([6-(4-Phenoxypheuyl)-4(3H)-oxopyrimidin-2-yl]thio)pentyl]thiophene-2-carboxylic acid] had a pKi of 6.37.

`Cc1cc(CSc2nc(-c3ccc(-c4cccs4)s3)c(C#N)c(=O)[nH]2)ccc1S(=O)(=O)Nc1ccc(F)cc1` [Compound 17, N-(4-Fluorophenyl) 4-[([5-cyano-6-(5-[2-thienyl]thien-2-yl)-4(3H)-oxopyrimidin-2-yl]thio)methyl]-2-methylbenzenesulfonamide]: the pKi is 6.00.

Turning to `CN(c1ccc(CSc2nc(-c3ccc(-c4cccs4)s3)c(C#N)c(=O)[nH]2)cc1)S(=O)(=O)c1ccc(F)cc1` [Compound 20, N-(4-[([5Cyano-6(5-[2-thienyl]thien-2-yl)-4(3 H)-oxopyrimidin-2-yl]thio)methyl]phenyl)-N-methyl 4-fluorobenzenesulfonamide], the pKi was 5.74.

In the case of `O=C(O)c1ccc(CCCSc2nc(-c3ccccc3)cc(=O)[nH]2)s1` [Compound 2, 5-(3-[(6-Phenyl-4(3H)-oxopyrimidin-2-yl)thio]propyl)thiophene-2-carboxylic acid], the pKi was 5.14.

As to `N#Cc1c(-c2ccc(-c3cccs3)s2)nc(SCc2cccc(NS(=O)(=O)c3ccc(F)cc3)c2)[nH]c1=O` [Compound 25, N(3-[([5-Cyano-6-(5-[2-thienyl]thien-2-yl)-4(3H)-oxopyrimidin-2-yl]thio)methyl]phenyl) 4-fluorobenzenesulfonamide], the pKi was 5.85.

The molecule `O=C(O)CCC(NC(=O)c1ccc(CCCSc2nc(-c3ccccc3)cc(=O)[nH]2)s1)C(=O)O` (stereo not drawn) [Compound 13, N-(5-[3-([6Phenyl-4(3H)-oxopyrimidin-2-yl]thio)propyl]theno-2-yl)glutamic acid] gave a pKi of 5.28.

In turn, `O=C(O)c1ccc(CCCCCSc2nc(-c3ccccc3)cc(=O)[nH]2)s1` [Compound 1, 5-(5-[(6-Phenyl-4(3H)-oxopyrimidin-2-yl)thio]pentyl)thiophene2-carboxylic acid] showed a pKi of 5.46.

Molecule `COC(=O)c1ccc(CCCCCSc2nc(-c3ccc(-c4ccccc4)cc3)cc(=O)[nH]2)s1` [Compound 4, Methyl 5-[5-([6-(4-biphenylyl)-4(3H)-oxopyrimidin-2-yl]thio)pentyl]-thiophene-2-carboxylate] gave a pKi of 4.26.

Molecule `Cc1ccc2cc(NS(=O)(=O)c3ccc(CSc4nc(-c5ccc(-c6cccs6)s5)c(C#N)c(=O)[nH]4)cc3)ccc2n1` [Compound 16, N-(2-Methylquinolin-6-yl) 4-[([5-cyan-6-(5-[2-thienyl]thien-2yl)-4(3H)-oxopyrimidin-2-yl]thio)methyl]benzenesulfonamide] showed a pKi of 6.37.

Molecule `N#Cc1c(-c2ccc(-c3cccs3)s2)nc(SCCCCCc2ccc(C(=O)NC(CCC(=O)O)C(=O)O)s2)[nH]c1=O` (stereo not drawn) [Compound 10, N-(5-[5-([5-Cyano-6-(5-[2-thienyl]thien-2-yl)-4(3H)-oxopyrimidin-2-yl]thio)pentyl]theno-2-yl)glutamic acid] had a pKi of 8.40.

`N#Cc1c(-c2ccc(-c3cccs3)s2)nc(SCc2ccc(NS(=O)(=O)c3ccc(F)cc3)cc2)[nH]c1=O` [Compound 18, N-(4-[([5-Cyano-6-(5-[2-thienyl]thien-2-yl)-4(3H)-oxopyrimidin-2-yl]thio)methyl]phenyl) 4-fluorobenzenesulfonamide] had a pKi of 6.42.

As to `COc1cc(NS(=O)(=O)c2ccc(F)cc2)ccc1CSc1nc(-c2ccc(-c3cccs3)s2)c(C#N)c(=O)[nH]1` [Compound 23, N-(4-[([5-Cyano-6-(5-[2-thienyl]thien-2-yl)-4(3H)-oxopyrimidin-2-yl]thio)methyl]-3-methoxyphenyl) 4-fluorobenzenesulfonamide], the pKi was 6.11.

On to `CN(c1ccc(F)cc1)S(=O)(=O)c1ccc(CSc2nc(-c3ccc(-c4cccs4)s3)c(C#N)c(=O)[nH]2)cc1` [Compound 15, N-(4-Fluorophenyl)-N-methyl 4-[([5cyano-6-(5-[2-thienyl]thien-2-yl)-4(3H)-oxopyrimidin-2-yl]thio)methyl]benzenesulfonamide], for which the pKi is 5.68.

`O=C(O)c1ccc(CCCCCSc2nc(-c3ccc(N4CCOCC4)cc3)cc(=O)[nH]2)s1` [Compound 7, 5-[5-([6-(4-Morpholinylphenyl)-4(3H)-oxopyrimidin-2-yl]thio)pentyl]-thiophene-2-carboxylic acid] gave a pKi of 6.66.

Values taken from patent US6525050B1, “(4-oxo-2-pyrimidinyl)thioalkyl compounds useful as AICARFT inhibitors” (Agouron Pharmaceuticals, Inc., priority 1998, dated 2003).
